The source of these data is patent publication US20260193264A1, “BENZOYPARAZINE PYRAZINES AND THEIR USES” (FOGHORN THERAPEUTICS INC., priority 2022, published 2026).

Assay [1] has as its target T1, HiBiT-BRM fusion protein in stable HeLa cell line (Homo sapiens, UniProt P51531).
T1 construct: expressed in transfected cells
The experiment in a line: HiBiT-BRM cell-based degradation assay (Nano-Glo HiBiT Lytic Detection, 24 h). More on the design: DC50: scale not given here. The conditions noted are these: HeLa HiBiT-BRM cells; for DC50: read-out: BRM HiBit Degradation IC50; for BRM HiBit Degradation Maximum (%): top dose 30 μM. The essentials:
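Stable HiBiT-BRM HeLa cells treated 24 h with 10-point 3-fold dilutions, top final dose 30 μM, in duplicate. Luminescence read after lytic LgBiT reagent. Percent degradation was normalised to DMSO (high control) and 2 μM reference BRM/BRG1 degrader (low control).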

The target in assay [2] is T2, HiBit-BRG1 fusion protein in stable HeLa cell line expressing HiBit-BRG1 and LgBit (Homo sapiens, UniProt P51532).
T2 construct: expressed in transfected cells
T2 sequence (P51532 whole entry, the tested form may be a part): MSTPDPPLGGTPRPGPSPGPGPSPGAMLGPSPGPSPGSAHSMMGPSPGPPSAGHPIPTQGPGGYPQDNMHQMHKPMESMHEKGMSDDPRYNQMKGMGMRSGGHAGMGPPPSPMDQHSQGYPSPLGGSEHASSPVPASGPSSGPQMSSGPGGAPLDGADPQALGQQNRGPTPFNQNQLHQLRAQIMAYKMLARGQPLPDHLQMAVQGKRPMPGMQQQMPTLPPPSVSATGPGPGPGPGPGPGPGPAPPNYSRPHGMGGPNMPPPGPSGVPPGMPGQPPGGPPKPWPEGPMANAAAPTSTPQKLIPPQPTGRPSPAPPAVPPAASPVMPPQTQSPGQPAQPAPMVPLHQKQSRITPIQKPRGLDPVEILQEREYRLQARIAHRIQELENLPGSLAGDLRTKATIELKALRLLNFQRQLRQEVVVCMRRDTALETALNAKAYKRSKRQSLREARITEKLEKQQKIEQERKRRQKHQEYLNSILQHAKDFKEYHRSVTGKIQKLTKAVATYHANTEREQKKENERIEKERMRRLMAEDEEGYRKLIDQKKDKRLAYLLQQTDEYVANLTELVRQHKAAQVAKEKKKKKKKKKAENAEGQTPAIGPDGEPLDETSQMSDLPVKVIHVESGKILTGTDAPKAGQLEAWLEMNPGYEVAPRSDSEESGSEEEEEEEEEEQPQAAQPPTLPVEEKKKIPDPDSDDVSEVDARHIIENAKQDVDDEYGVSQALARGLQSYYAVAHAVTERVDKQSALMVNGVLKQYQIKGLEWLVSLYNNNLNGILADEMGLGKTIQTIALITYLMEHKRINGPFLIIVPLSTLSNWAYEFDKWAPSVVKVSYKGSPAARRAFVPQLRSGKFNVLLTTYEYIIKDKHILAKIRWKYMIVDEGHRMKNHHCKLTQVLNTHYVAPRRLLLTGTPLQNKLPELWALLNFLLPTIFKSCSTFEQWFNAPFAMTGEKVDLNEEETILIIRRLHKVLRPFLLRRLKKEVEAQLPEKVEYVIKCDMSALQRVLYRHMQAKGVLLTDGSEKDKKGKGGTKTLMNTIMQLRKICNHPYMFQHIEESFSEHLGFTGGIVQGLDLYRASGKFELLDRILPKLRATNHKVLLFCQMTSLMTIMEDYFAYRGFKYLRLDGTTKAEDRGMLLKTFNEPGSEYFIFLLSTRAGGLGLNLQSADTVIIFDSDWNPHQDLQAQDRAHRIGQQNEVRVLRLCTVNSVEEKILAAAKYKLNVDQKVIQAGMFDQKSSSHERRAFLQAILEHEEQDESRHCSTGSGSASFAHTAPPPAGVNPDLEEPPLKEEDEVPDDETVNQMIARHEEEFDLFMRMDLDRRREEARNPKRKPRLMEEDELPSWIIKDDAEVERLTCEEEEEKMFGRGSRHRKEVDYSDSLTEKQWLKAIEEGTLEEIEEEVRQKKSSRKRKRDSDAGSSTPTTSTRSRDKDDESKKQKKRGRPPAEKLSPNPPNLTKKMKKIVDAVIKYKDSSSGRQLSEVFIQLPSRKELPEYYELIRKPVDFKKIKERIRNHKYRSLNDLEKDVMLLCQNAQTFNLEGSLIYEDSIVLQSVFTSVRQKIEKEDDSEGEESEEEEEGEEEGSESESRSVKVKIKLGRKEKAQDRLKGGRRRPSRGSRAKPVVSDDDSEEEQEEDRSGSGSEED
The assay is described as follows: HiBiT-BRG1 cell-based degradation assay (Nano-Glo HiBiT, 24 h). As to conditions: HeLa HiBit-BRG1/LgBit cells; for Dmax: top dose 30 μM, read-out: BRG1 HiBit Degradation Maximum (%); for DC50: read-out: BRMG1 HiBit Degradation IC50. In outline:
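Stable HeLa line co-expressing HiBiT-BRG1 and LgBiT, compound-treated 24 h; luminescence read after Nano-Glo HiBiT lytic reagent. % degradation normalised between DMSO (high control) and 2 μM reference BRM/BRG1 degrader (low control).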

A value given as a limit tells only on which side of the number the result lay.

T1 sequence (P51531 whole entry, the tested form may be a part): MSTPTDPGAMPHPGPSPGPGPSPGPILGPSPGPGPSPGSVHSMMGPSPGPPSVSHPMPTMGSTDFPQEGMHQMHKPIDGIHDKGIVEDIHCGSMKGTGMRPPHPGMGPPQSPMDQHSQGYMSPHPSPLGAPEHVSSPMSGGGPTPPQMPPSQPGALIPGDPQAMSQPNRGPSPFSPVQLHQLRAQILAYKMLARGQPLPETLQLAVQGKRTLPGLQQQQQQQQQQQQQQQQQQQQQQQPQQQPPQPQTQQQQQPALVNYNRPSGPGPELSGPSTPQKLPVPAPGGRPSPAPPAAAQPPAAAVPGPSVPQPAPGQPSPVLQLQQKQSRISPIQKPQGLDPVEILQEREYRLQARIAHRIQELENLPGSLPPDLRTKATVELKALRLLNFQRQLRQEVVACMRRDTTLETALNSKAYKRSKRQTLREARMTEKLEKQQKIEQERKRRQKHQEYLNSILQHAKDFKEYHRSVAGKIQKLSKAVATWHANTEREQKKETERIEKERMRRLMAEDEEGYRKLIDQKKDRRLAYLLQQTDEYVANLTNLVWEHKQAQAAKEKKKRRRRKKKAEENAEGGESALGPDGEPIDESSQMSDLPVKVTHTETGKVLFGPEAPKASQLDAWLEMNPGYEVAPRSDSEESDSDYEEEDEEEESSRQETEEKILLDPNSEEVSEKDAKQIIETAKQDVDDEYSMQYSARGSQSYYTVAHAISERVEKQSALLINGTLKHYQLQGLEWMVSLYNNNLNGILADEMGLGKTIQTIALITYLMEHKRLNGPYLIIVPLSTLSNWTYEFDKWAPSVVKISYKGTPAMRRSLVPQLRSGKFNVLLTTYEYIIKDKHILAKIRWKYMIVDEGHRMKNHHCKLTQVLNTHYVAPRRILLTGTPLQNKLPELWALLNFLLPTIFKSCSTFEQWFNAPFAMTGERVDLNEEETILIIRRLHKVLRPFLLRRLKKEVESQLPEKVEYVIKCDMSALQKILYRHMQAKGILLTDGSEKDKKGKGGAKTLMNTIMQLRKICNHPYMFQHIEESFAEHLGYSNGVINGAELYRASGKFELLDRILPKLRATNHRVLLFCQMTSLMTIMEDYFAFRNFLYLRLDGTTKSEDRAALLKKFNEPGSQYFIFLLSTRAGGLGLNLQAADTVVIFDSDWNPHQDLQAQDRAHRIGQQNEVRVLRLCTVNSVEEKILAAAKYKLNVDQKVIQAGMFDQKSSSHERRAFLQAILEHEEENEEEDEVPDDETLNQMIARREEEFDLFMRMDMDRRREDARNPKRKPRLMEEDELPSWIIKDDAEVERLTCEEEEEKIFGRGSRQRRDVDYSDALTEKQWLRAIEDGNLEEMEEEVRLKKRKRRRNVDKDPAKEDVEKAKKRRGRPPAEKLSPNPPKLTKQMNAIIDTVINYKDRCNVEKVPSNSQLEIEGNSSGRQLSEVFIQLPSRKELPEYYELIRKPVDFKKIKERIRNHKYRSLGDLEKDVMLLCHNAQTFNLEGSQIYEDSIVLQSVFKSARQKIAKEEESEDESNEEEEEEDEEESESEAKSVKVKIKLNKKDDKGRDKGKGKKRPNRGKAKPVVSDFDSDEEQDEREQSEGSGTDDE

On to `Cc1ncsc1-c1ccc([C@H](C)NC(=O)[C@@H]2C[C@@H](O)CN2C(=O)[C@@H](c2cc(N3CC4(CN(c5ccc6nnc(-c7ccccc7O)cc6c5)CCO4)C3)no2)C(C)C)cc1` [Compound 129, (2S,4R)-4-hydroxy-1-((R)-2-(3-(8-(3-(2-hydroxyphenyl)cinnolin-6-yl)-5-oxa-2,8-diazaspiro[3.5]nonan-2-yl)isoxazol-5-yl)-3-methylbutanoyl)-N-((S)-1-(4-(4-methylthiazol-5-yl)phenyl)ethyl)pyrrolidine-2-carboxamide], for which, in assay [1], the DC50 was below 10 nM and the “BRM HiBit Degradation Maximum (%)” value is recorded as “A (“A” indicates maximum degradation ≥75%)”. Further, in assay [2], the Dmax was below 50%.

Consider `CC(C)[C@@H](C(=O)N1C[C@H](O)C[C@H]1C(=O)N[C@@H](C)c1ccccc1)c1cc(N2CC[C@@H](c3ccc4cc(-c5ccccc5O)nnc4c3)C2)no1` [Compound 116, (2S,4R)-4-hydroxy-1-((R)-2-(3-((S)-3-(3-(2-hydroxyphenyl)cinnolin-7-yl)pyrrolidin-1-yl)isoxazol-5-yl)-3-methylbutanoyl)-N-((S)-1-phenylethyl)pyrrolidine-2-carboxamide], for which, in assay [1], the DC50 is below 10 nM and the “BRM HiBit Degradation Maximum (%)” value is “A (“A” indicates maximum degradation ≥75%)”. Moreover, the Dmax in assay [2] is below 50%.

For `Cc1ncsc1-c1ccc([C@H](C)NC(=O)[C@@H]2C[C@@H](O)CN2C(=O)[C@@H](c2cc(N3CCN([C@H]4CCN(c5ccc6cc(-c7ccccc7O)nnc6c5)CC4(F)F)CC3)no2)C(C)C)cc1` [Compound 115, (2S,4R)-1-((R)-2-(3-(4-((S)-3,3-difluoro-1-(3-(2-hydroxyphenyl)cinnolin-7-yl)piperidin-4-yl)piperazin-1-yl)isoxazol-5-yl)-3-methylbutanoyl)-4-hydroxy-N-((S)-1-(4-(4-methylthiazol-5-yl)phenyl)ethyl)pyrrolidine-2-carboxamide], in assay [1], the DC50 was below 10 nM and the “BRM HiBit Degradation Maximum (%)” value is “A (“A” indicates maximum degradation ≥75%)”. Besides, in assay [2], the DC50 is below 10 nM and the Dmax is above 75%.

As to `Cc1ncsc1-c1ccc([C@H](C)NC(=O)[C@@H]2C[C@@H](O)CN2C(=O)[C@H](c2cc(-c3ccnc(N4CCC(c5ccc6nnc(-c7ccccc7O)cc6c5)CC4)n3)no2)C(C)C)cc1` [Compound 37], the “BRM HiBit Degradation Maximum (%)” value in assay [1] is recorded as “C (“C” indicates maximum degradation <50%)”. The Dmax in assay [2] is below 50%.

With `Cc1ncsc1-c1ccc([C@H](C)NC(=O)[C@@H]2C[C@@H](O)CN2C(=O)[C@@H](c2cc(N3CC4(CC(c5cc6nnc(-c7ccccc7O)cc6cc5C5CC5)C4)C3)no2)C(C)C)cc1` [Compound 252, (2S,4R)-1-((R)-2-(3-(6-(6-cyclopropyl-3-(2-hydroxyphenyl)cinnolin-7-yl)-2-azaspiro[3.3]heptan-2-yl)isoxazol-5-yl)-3-methylbutanoyl)-4-hydroxy-N-((S)-1-(4-(4-methylthiazol-5-yl)phenyl)ethyl)pyrrolidine-2-carboxamide], in assay [1], the DC50 was below 10 nM and the “BRM HiBit Degradation Maximum (%)” value is listed as “A (“A” indicates maximum degradation ≥75%)”. Further, in assay [2], the DC50 was below 10 nM and the Dmax was above 75%.

With `Cc1ncsc1-c1ccc([C@H](C)NC(=O)[C@@H]2C[C@@H](O)CN2C(=O)[C@@H](c2cc(N3CC4(C3)CN(c3cc5nnc(-c6cccc(F)c6O)cc5cc3C3CC3)C4)no2)C(C)C)cc1` [Compound 180, (2S,4R)-1-((R)-2-(3-(6-(6-cyclopropyl-3-(3-fluoro-2-hydroxyphenyl)cinnolin-7-yl)-2,6-diazaspiro[3.3]heptan-2-yl)isoxazol-5-yl)-3-methylbutanoyl)-4-hydroxy-N-((S)-1-(4-(4-methylthiazol-5-yl)phenyl)ethyl)pyrrolidine-2-carboxamide], in assay [1], the DC50 was below 10 nM and the “BRM HiBit Degradation Maximum (%)” value is on record as “A (“A” indicates maximum degradation ≥75%)”. Moreover, in assay [2], the Dmax was below 50%.

Turning to `Cc1ncsc1-c1ccc([C@H](C)NC(=O)[C@@H]2C[C@@H](O)CN2C(=O)[C@@H](c2cc(N3CCN([C@@H]4CCN(c5ccc6cc(-c7ccccc7O)nnc6c5)CC4(F)F)CC3)no2)C(C)C)cc1` [Compound 107, (2S,4R)-1-((R)-2-(3-(4-((R)-3,3-difluoro-1-(3-(2-hydroxyphenyl)cinnolin-7-yl)piperidin-4-yl)piperazin-1-yl)isoxazol-5-yl)-3-methylbutanoyl)-4-hydroxy-N-((S)-1-(4-(4-methylthiazol-5-yl)phenyl)ethyl)pyrrolidine-2-carboxamide], in assay [1], the DC50 was below 10 nM and the “BRM HiBit Degradation Maximum (%)” value is on record as “A (“A” indicates maximum degradation ≥75%)”. Further, in assay [2], the DC50 is below 10 nM and the Dmax was above 75%.

`Cc1ncsc1-c1ccc([C@H](C)NC(=O)[C@@H]2C[C@@H](O)CN2C(=O)[C@@H](c2cc(N3CCN(c4ccc5nnc(-c6ccccc6O)cc5c4)CC3)no2)C(C)C)cc1` [Compound 57, (2S,4R)-4-hydroxy-1-((R)-2-(3-(4-(3-(2-hydroxyphenyl)cinnolin-6-yl)piperazin-1-yl)isoxazol-5-yl)-3-methylbutanoyl)-N-((S)-1-(4-(4-methylthiazol-5-yl)phenyl)ethyl)pyrrolidine-2-carboxamide]: in assay [1], the DC50 was below 10 nM and the “BRM HiBit Degradation Maximum (%)” value is on record as “A (“A” indicates maximum degradation ≥75%)”. In assay [2], the DC50 is above 10 nM and the Dmax was above 75%.

With `Cc1ncsc1-c1ccc([C@H](C)NC(=O)[C@@H]2C[C@@H](O)CN2C(=O)[C@@H](c2cc(N3CC4(CCN4c4ccc5nnc(-c6ccccc6O)cc5c4)C3)no2)C(C)C)cc1` [Compound 102, (2S,4R)-4-hydroxy-1-((R)-2-(3-(1-(3-(2-hydroxyphenyl)cinnolin-6-yl)-1,6-diazaspiro[3.3]heptan-6-yl)isoxazol-5-yl)-3-methylbutanoyl)-N-((S)-1-(4-(4-methylthiazol-5-yl)phenyl)ethyl)pyrrolidine-2-carboxamide], in assay [1], the DC50 is below 10 nM and the “BRM HiBit Degradation Maximum (%)” value is reported as “A (“A” indicates maximum degradation ≥75%)”. The Dmax in assay [2] is below 50%.

Turning to `Cc1ncsc1-c1ccc([C@H](C)NC(=O)[C@@H]2C[C@@H](O)CN2C(=O)[C@H](C(C)C)n2cc(N3CCN4CCN(c5ccc6cc(-c7ccccc7O)nnc6c5)C[C@H]4C3)nn2)cc1` [Compound 198], in assay [1], the DC50 is below 10 nM and the “BRM HiBit Degradation Maximum (%)” value was “A (“A” indicates maximum degradation ≥75%)”. Moreover, in assay [2], the DC50 is below 10 nM and the Dmax is above 75%.

Regarding `Cc1ncsc1-c1ccc([C@H](C)NC(=O)[C@@H]2C[C@@H](O)CN2C(=O)[C@@H](c2cc(N3CC4(C3)CN(c3cc5nnc(-c6ccccc6O)cc5cc3C(F)F)C4)no2)C(C)C)cc1` [Compound 168, (2S,4R)-1-((R)-2-(3-(6-(6-(difluoromethyl)-3-(2-hydroxyphenyl)cinnolin-7-yl)-2,6-diazaspiro[3.3]heptan-2-yl)isoxazol-5-yl)-3-methylbutanoyl)-4-hydroxy-N-((S)-1-(4-(4-methylthiazol-5-yl)phenyl)ethyl)pyrrolidine-2-carboxamide], in assay [1], the DC50 is below 10 nM and the “BRM HiBit Degradation Maximum (%)” value is “A (“A” indicates maximum degradation ≥75%)”. In assay [2], the DC50 was below 10 nM and the Dmax is above 50%.

`Cc1ncsc1-c1ccc([C@H](C)NC(=O)[C@@H]2C[C@@H](O)CN2C(=O)[C@@H](c2cc(N3CCC(C(=O)N4CC(c5ccc6cc(-c7ccccc7O)nnc6c5)C4)CC3)no2)C(C)C)cc1` [Compound 45]: in assay [1], the DC50 was below 10 nM and the “BRM HiBit Degradation Maximum (%)” value is “A (“A” indicates maximum degradation ≥75%)”. Besides, in assay [2], the DC50 was above 10 nM and the Dmax was above 75%.

With `Cc1ncsc1-c1ccc([C@H](C)NC(=O)[C@@H]2C[C@@H](O)CN2C(=O)[C@@H](c2cc(-c3cnc(N4CC5(CN(c6ccc7cc(-c8ccccc8O)nnc7c6)C5)C4)nc3)no2)C(C)C)cc1` [Compound 231, (2S,4R)-4-hydroxy-1-((R)-2-(3-(2-(6-(3-(2-hydroxyphenyl)cinnolin-7-yl)-2,6-diazaspiro[3.3]heptan-2-yl)pyrimidin-5-yl)isoxazol-5-yl)-3-methylbutanoyl)-N-((S)-1-(4-(4-methylthiazol-5-yl)phenyl)ethyl)pyrrolidine-2-carboxamide], in assay [1], the DC50 is below 10 nM and the “BRM HiBit Degradation Maximum (%)” value is “A (“A” indicates maximum degradation ≥75%)”. Moreover, in assay [2], the DC50 was below 10 nM and the Dmax is above 75%.

`C#Cc1ccc(CNC(=O)[C@@H]2C[C@@H](O)CN2C(=O)[C@H](C(C)C)n2cc(N3CC4(CN(c5ccc6cc(-c7ccccc7O)nnc6c5)C4)C3)nn2)c(OCCCOC)c1` [Compound 242, (2S,4R)-N-(4-ethynyl-2-(3-methoxypropoxy)benzyl)-4-hydroxy-1-((S)-2-(4-(6-(3-(2-hydroxyphenyl)cinnolin-7-yl)-2,6-diazaspiro[3.3]heptan-2-yl)-1H-1,2,3-triazol-1-yl)-3-methylbutanoyl)pyrrolidine-2-carboxamide]: in assay [1], the DC50 is below 10 nM and the “BRM HiBit Degradation Maximum (%)” value is on record as “A (“A” indicates maximum degradation ≥75%)”. Besides, in assay [2], the DC50 is below 10 nM and the Dmax is above 50%.

`Cc1ncsc1-c1ccc([C@H](C)NC(=O)[C@@H]2C[C@@H](O)CN2C(=O)[C@H](c2cc(-c3cnc(N4CC(c5cc(F)c6cc(-c7ccccc7O)nnc6c5)C4)nc3)no2)C(C)C)cc1` [Compound 27]: in assay [1], the DC50 was above 100 nM and the “BRM HiBit Degradation Maximum (%)” value is given as “A (“A” indicates maximum degradation ≥75%)”. Besides, the Dmax in assay [2] is below 50%.
